Reference: patent EP0559845B1, “Use of compounds in preventing endotoxin shock” (priority 1991, dated 1992)
“Also recorded” adds a separate entry of the source.

Legend:
Format in all cases: biochemical
[1] = tested on: LPS-induced GTPase activity in membranes isolated from RAW 264.7 cells; assay: GTPase assay: effect of compounds on LPS-stimulated GTPase activity in macrophage membranes (release of 32Pi from γ-32P-GTP)
Excerpt: (§1) We sought to directly evaluate the influence of LPS on possible G-protein function by examining agonist-enhanced GTPase activity, which is a hallmark of G-protein action. Moreover, because macrophages are one of the key cell types in the release of toxic mediators following an LPS challenge, we first assessed the capacity of LPS to influence GTPase activity in membranes isolated from RAW 264.7 cells, which is a highly LPS-responsive macrophage cell line. In these studies, GTPase activity was measured using a standard assay. The activity was determined using 2 µM γ-^32P-GTP in the presence of 0.1 mM ATP and 0.2 mM of the non-hydrolyzable ATP analog, AMPPNP, in order to minimize nonspecific nucleotidase activity in the membrane preparations.
The reaction is initiated by the addition of the γ-^32P-GTP and the mixture incubated at 30-37°C for 15 to 30 minutes. The reaction is terminated by the addition of 500µl of 5% trichloroacetic acid and 500µl of 0.1gm/ml acid-activated charcoal in 5% trichloroacetic acid. The samples are centrifuged at 14,000xg for 10 minutes, and a 550µl aliquot of the supernatant is removed for scintillation counting. The supernatant will contain the released ^32Pi. The extent of GTPase inhibition is measured by the decrease in the amount of ^32Pi released from γ-^32P-GTP. Appropriate controls include mixtures with one of the following omitted: (i) test compound, (ii) endotoxin, and (iii) ATP, ADP or AMPPNP.
The membranes are resuspended in 20 mM HEPES (pH 7.4), 1 mM dithiothreitol, 1 mM EDTA and 10 µg leupeptin/ml. Aliquots are stored at -70°C until assayed.

[2] = tested on: FCS-enhanced GTPase activity; assay: Inhibition of FCS-enhanced (non-LPS-stimulated) GTPase activity in macrophage membranes; details: 3 mg/ml lipid X; 10% FCS
Protocol: With respect to non-LPS-stimulated GTPase activity in this macrophage system, we observed that 10% FCS (<0.1 ng endotoxin/ml serum by the Limulus amebocyte lysate method) induced a large degree of GTPase activation, whereas 3 mg/ml lipid X inhibited the FCS-enhanced GTPase activity by ∼ 50%.

[3] = tested on: GTPase activity in membranes isolated from a macrophage (RAW 264.7) cell line; assay: GTPase assay, basal activity and single agonists
Excerpt: as §1, with “preparations. In the preferred practice of the present invention, the ability of a candidate compound to inhibit LPS-induced GTPase is assessed by measuring the release of ^32Pi from γ-^32P-GTP.” for “preparations.”
We first determined the optimal LPS concentration for GTPase stimulation. In all experiments, the LPS dose response curve was quite steep, and with the highest activity occurring around 200-300 µg LPS/ml.
Under these conditions, GTPase activation was evident at 100 µg LPS/ml (roughly 6 µM assuming an average MW ∼ 17,000 kDa), and the maximal effect was seen by 300 µg/ml LPS. (2) To show adenosine mucleotide synergism with LPS-stimulated GTPase activity, either 10µM ATP or 30µM ADP replace the 0.1 mM ATP and 0.2 mM AMPPNP of the standard assay described by Cassel et al. and Neer et al.
Because the above inhibitor studies indicated a maximum LPS-stimulated GTPase activity in the presence of ATP and ATP analogs, we investigated this interaction by measuring the ATP-dependence of the GTPase activity in macrophage membranes in the presence and absence of an optimal dose of LPS. […] This stimulation by ATP may be due to the action of purinergic receptors, i.e., the adenosine and ATP receptors which are well-characterized to be coupled to various G-proteins.
To assess whether the LPS/ATP-enhanced GTPase is a "low Km" form, which would be expected for a variety of large and small MW G-proteins, as well as for various GAP and ARF-like proteins, as opposed to a "high Km" form, such as a phosphatase, we assayed the GTPase activity using 0.2 and 50 µM GTP essentially as described previously. […] The LPS and ATP stimulated a low Km GTPase activity by ∼30% and 70%, respectively, when added individually. This stimulation of low Km activity was slightly greater than that estimated using the standard assay conditions. […] The LPS stimulation of GTPase activity is enhanced by adenine nucleotides.

## CCCCCCCCCCC[C@@H](O)CC(=O)N[C@H]1[C@@H](OP(=O)(O)O)O[C@H](CO)[C@@H](O)[C@@H]1OC(=O)C[C@H](O)CCCCCCCCCCC [lipid X]
[1]
  inhibition of LPS-stimulated GTPase activity: dose-dependent inhibition; also recorded: dose-dependently inhibiting
[1]; LPS 300 µg/ml or 1 mg/ml
  half-maximal inhibition of LPS-enhanced GTPase activity: 23 to 1 molar ratio of lipid X to LPS
[2]
  inhibition of FCS-enhanced GTPase activity: ~50%
[3]
  effect on basal GTPase activity: slightly reducing
